Counter-ions that a name gives are not always drawn.

This assay has as its system IL-1β release upon NLRP3 activation in peripheral blood mononuclear cells (PBMC). Nature of the assay: PBMC IC50 Determination Assay. To be noted: Homo sapiens; PBMC from buffy coats, LPS 3 h, compound 30 min, then ATP (5 mM) or nigericin (10 μM) 1 h; IL-1β in media by ELISA (Protocol A) or HTRF (Protocol B). In kind it is cell-based. The method, then:
The compounds of the present disclosure were tested for their inhibitory activity against IL-1β release upon NLRP3 activation in peripheral blood mononuclear cells (PBMC).
Protocol A. PBMC were isolated from buffy coats by density gradient centrifugation on Histopaque-1077 (Sigma, cat no. 10771). Isolated cells were seeded into the wells of a 96-well plate and incubated for 3 h with lipopolysaccharide (LPS). Following medium exchange, the compounds of the present disclosure were added (a single compound per well) and the cells were incubated for 30 min. Next, the cells were stimulated either with ATP (5 mM) or nigericin (10 μM) for 1 h and the cell culture media from the wells were collected for further analysis.
The release of IL-1β into the media was determined by a quantitative detection of IL-1β in the media using an IL-1p enzyme-linked immunosorbent assay (ELISA) Ready-SET-Go!, eBioscience cat. No. 88-7261-88. Briefly, in a first step, high affinity binding plates (Corning, Costar 9018 or NUNC Maxisorp Cat No. 44-2404) were coated overnight at 4° C. with specific capture antibody included in the kit (anti-human IL-1β ref 14-7018-68). Subsequently, plates were blocked with blocking buffer for 1 h at room temperature (rt) and after washing with a buffer (PBS with 0.05% Tween-20) incubated with protein standard and culture media. After 2 h of incubation at rt, plates were washed and incubated with biotinylated detection antibody included in the kit (anti-human IL-1β Biotin ref. 33-7110-68) for 1 h at rt. Plates were washed and incubated with HRP-streptavidin for 30 min at rt and washed again. The signal was developed after addition of 3,3′,5,5′-tetramethylbenzidine-peroxidase (TMB) until colour appeared and the reaction was stopped by 2 M H2SO4. A microplate spectrophotometer (BioTek) was used to detect signals with 450 nm. The detection range of IL-1β ELISA was […].
Protocol B. PBMC were isolated from buffy coats by density gradient centrifugation on Histopaque-1077 (Sigma, cat no. 10771). Isolated cells were seeded into the wells (280,000 cells/well) of a 96-well plate and incubated for 3 h with lipopolysaccharide (LPS, 1 μg/mL diluted 1000× from a 1 mg/mL stock solution). The compounds of the present disclosure were added (a single compound per well) and the cells were incubated for 30 min. Next, the cells were stimulated with ATP (5 mM final concentration diluted 20× from a 100 mM stock solution) for 1 h and the cell culture media from the wells were collected for further analysis.
The release of IL-1β into the media was determined by quantitative detection of IL-1β in the media using HTRF®, CisBio cat. No. 62HIL1BPEH. Briefly, cell culture supernatant were dispensed directly into the assay plate containing antibodies labelled with the HTRF® donor and acceptor. A microplate spectrophotometer (BMG) was used to detect signals at 655 nm and 620 nm. The detection range of IL-1β HTRF® was 39-6500 μg/mL.
In general terms: In an ELISA, binding on a coated surface is turned into a signal by an enzyme label.
Take `C[C@@H]1CN(CC(=O)Nc2ncccn2)C(=O)c2cc3sc(Cl)cc3n21` (racemic) [Compound 9, N-Pyrimidin-2-yl-2-[rac-(12R)-4-chloro-12-methyl-9-oxo-5-thia-1,10-diazatricyclo[6.4.0.02,6]dodeca-2(6),3,7-trien-10-yl]acetamide]: the IC50 (usually the midpoint of a concentration-inhibition curve) lay within 1 to 3 µM.
Turning to `CC1Cn2cccc2C(=O)N1CC(=O)N[C@@H]1CCCN(C2CC2)C1` (stereo partly drawn) [Compound 1, N-[(3R)-1-Cyclopropyl-3-piperidyl]-2-(3-methyl-1-oxo-3,4-dihydropyrrolo[1,2-a]pyrazin-2-yl)acetamide hydrochloride], the IC50 lay in the range of 3 to 10 µM.
Consider `C[C@]1(O)C[C@@H](NC(=O)CN2CC3(CC3)n3c(cc4sc(Cl)cc43)C2=O)C1` [Compound 2, cis-2-(4-Chloro-9-oxo-spiro[5-thia-1,10-diazatricyclo[6.4.0.0^2.6]dodeca-2(6),3,7-triene-12,1′-cyclopropane]-10-yl)-N-(3-hydroxy-3-methylcyclobutyl) acetamide], for which the IC50 is 1 to 3 µM.
To `O=C(CN1CC2(CC2)n2c(cc3sc(Cl)cc32)C1=O)Nc1ncccn1` [Compound 3, 2-(4-Chloro-9-oxo-spiro[5-thia-1,10-diazatricyclo[6.4.0.02,6]dodeca-2(6),3,7-triene-12,1′-cyclopropane]-10-yl)-N-pyrimidin-2-yl-acetamide] belongs 0.1 to 1 µM; to `O=C(CN1CC2(CC2)n2c(cc3sc(Cl)cc32)C1=O)NC1CC2(COC2)C1` [Compound 4], 1 to 3 µM.
In turn, `Cc1nc(NC(=O)CN2CC3(CC3)n3c(cc4sc(Cl)cc43)C2=O)ns1` [Compound 5, 2-(4-Chloro-9-oxo-spiro[5-thia-1,10-diazatricyclo[6.4.0.0^2,6]dodeca-2(6),3,7-triene-12,1′-cyclopropane]-10-yl)-N-(5-methyl-1,2,4-thiadiazol-3-yl)acetamide] registered an IC50 of 1 to 3 µM.
To `O=C(CN1CC2(CC2)n2c(cc3sc(Cl)cc32)C1=O)Nc1ncc(F)cn1` [Compound 6, 2-(4-Chloro-9-oxo-spiro[5-thia-1,10-diazatricyclo[6.4.0.0^2.6]dodeca-2(6),3,7-triene-12,1′-cyclopropane]-10-yl)-N-(5-fluoropyrimidin-2-yl)acetamide] belongs less than 0.1 µM; to `CCn1cc2c(n1)C1(CC1)CN(CC(=O)Nc1ncc(F)cn1)C2=O` [Compound 7, 2-(2-Ethyl-4-oxo-spiro[6H-pyrazolo[4,3-c]pyridine-7,1′-cyclopropane]-5-yl)-N-(5-fluoropyrimidin-2-yl)acetamide], 1 to 3 µM; to `CC(C)c1cc2n(n1)C1(CC1)CN(CC(=O)Nc1ncccn1)C2=O` [Compound 8, 2-(2-Isopropyl-4-oxo-spiro[6H-pyrazolo[1,5-a]pyrazine-7,1′-cyclopropane]-5-yl)-N-pyrimidin-2-yl-acetamide], 3 to 10 µM.
To `C[C@@H]1CN(CC(=O)N[C@H]2C[C@@](C)(O)C2)C(=O)c2cc3sc(Cl)cc3n21` [Compound 10, 2-[(12R)-4-Chloro-12-methyl-9-oxo-5-thia-1,10-diazatricyclo[6.4.0.02,6]dodeca-2(6),3,7-trien-10-yl]-N-(3-hydroxy-3-methyl-cyclobutyl)acetamide] belongs 3 to 10 µM; to `CC(C)c1cc2n(c1)C1(CC1)CN(CC(=O)Nc1ncccn1)C2=O` [Compound 11, 2-(7-Isopropyl-1-oxo-spiro[3H-pyrrolo[1,2-a]pyrazine-4,1′-cyclopropane]-2-yl)-N-pyrimidin-2-yl-acetamide], 3 to 10 µM; to `CC(C)c1nc2c(s1)C(=O)N(CC(=O)Nc1ncccn1)CC21CC1` [Compound 12, 2-(2-Isopropyl-4-oxo-spiro[6H-thiazolo[5,4-c]pyridine-7,1′-cyclopropane]-5-yl)-N-pyrimidin-2-yl-acetamide], 3 to 10 µM.
Take `CCc1nc2c(s1)C(=O)N(CC(=O)Nc1ncccn1)CC21CC1` [Compound 13, 2-(2-Ethyl-4-oxo-spiro[6H-thiazolo[5,4-c]pyridine-7,1′-cyclopropane]-5-yl)-N-pyrimidin-2-yl-acetamide]: the IC50 is 3 to 10 µM.
To `CCc1cc2c(s1)C(=O)N(CC(=O)Nc1ncccn1)CC21CC1` [Compound 14, 2-(2-Ethyl-7-oxo-spiro[5H-thieno[2,3-c]pyridine-4,1′-cyclopropane]-6-yl)-N-pyrimidin-2-yl-acetamide] belongs 0.1 to 1 µM.
As for `O=C(CN1CC2(CC2)c2nc(C3CC3)sc2C1=O)Nc1ncccn1` [Compound 15, 2-(2-Cyclopropyl-4-oxo-spiro[6H-thiazolo[5,4-c]pyridine-7,1′-cyclopropane]-5-yl)-N-pyrimidin-2-yl-acetamide], the IC50 was 0.1 to 1 µM.
Compound `CCOC(=O)c1cnc(NC(=O)CN2CC3(CC3)c3nc(C4CC4)sc3C2=O)nc1` [Compound 16, Ethyl 2-[[2-(2-cyclopropyl-4-oxo-spiro[6H-thiazolo[5,4-c]pyridine-7,1′-cyclopropane]-5-yl)acetyl]amino]pyrimidine-5-carboxylate] returned an IC50 of 1 to 3 µM.
In turn, `CC(C)n1cc2c(n1)C1(CC1)CN(CC(=O)Nc1ncccn1)C2=O` [Compound 17, 2-(2-Isopropyl-4-oxo-spiro[6H-pyrazolo[4,3-c]pyridine-7,1′-cyclopropane]-5-yl)-N-pyrimidin-2-yl-acetamide] displayed an IC50 of 3 to 10 µM.
The compound `CCc1cc2c(o1)C1(CC1)CN(CC(=O)Nc1ncccn1)C2=O` [Compound 18, 2-(2′-Ethyl-4′-oxo-4′H-spiro[cyclopropane-1,7′-furo[3,2-c]pyridin]-5′(6′H)-yl)-N-(pyrimidin-2-yl)acetamide] displayed an IC50 of 0.1 to 1 µM.
For `CC(C)c1cc2c([nH]1)C(=O)N(CC(=O)Nc1ncccn1)CC21CC1` [Compound 19, 2-(2′-Isopropyl-7′-oxo-1′,7′-dihydrospiro[cyclopropane-1,4′-pyrrolo[2,3-c]pyridin]-6′(5′H)-yl)-N-(pyrimidin-2-yl)acetamide], the IC50 was 1 to 3 µM.
Regarding `CC(C)c1cc2c(n1C)C(=O)N(CC(=O)Nc1ncccn1)CC21CC1` [Compound 20, 2-(2′-Isopropyl-1′-methyl-7′-oxo-1′,7′-dihydrospiro[cyclopropane-1,4′-pyrrolo[2,3-c]pyridin]-6′(5′H)-yl)-N-(pyrimidin-2-yl)acetamide], the IC50 fell in the range of 1 to 3 µM.
Consider `CC(C)c1nc2c(n1C)C(=O)N(CC(=O)Nc1ncccn1)CC21CC1` [Compound 21], for which the IC50 was in the range of 10 to 50 µM.
To `CC(C)c1cc2n(n1)[C@H](C)CN(CC(=O)Nc1ncccn1)C2=O` [Compound 22, 2-[(7R)-7-Methyl-4-oxo-2-(propan-2-yl)-4H,5H,6H,7H-pyrazolo[1,5-a]pyrazin-5-yl]-N-(pyrimidin-2-yl)acetamide] belongs 10 to 50 µM; to `CCNc1cc2c(s1)C(=O)N(CC(=O)Nc1ncccn1)CC21CC1` [Compound 23, 2-(2′-(Ethylamino)-7′-oxo-5′H-spiro[cyclopropane-1,4′-thieno[2,3-c]pyridin]-6′(7′H)-yl)-N-(pyrimidin-2-yl)acetamide], 1 to 3 µM.
To `Cc1cc2c(s1)C(=O)N(CC(=O)Nc1ncccn1)CC21CC1` [Compound 24, 2-(2′-Methyl-7′-oxo-5′H-spiro[cyclopropane-1,4′-thieno[2,3-c]pyridin]-6′(7′H)-yl)-N-(pyrimidin-2-yl)acetamide] belongs 1 to 3 µM; to `CC(C)c1cc2c(s1)C(=O)N(CC(=O)Nc1ncccn1)CC21CC1` [Compound 25, 2-(2′-Isopropyl-7′-oxo-5′H-spiro[cyclopropane-1,4′-thieno[2,3-c]pyridin]-6′(7′H)-yl)-N-(pyrimidin-2-yl)acetamide], 0.1 to 1 µM.
Under `O=C(CN1CC2(CC2)c2cc(C3CC3)sc2C1=O)Nc1ncccn1` [Compound 26, 2-(2′-Cyclopropyl-7′-oxo-5′H-spiro[cyclopropane-1,4′-thieno[2,3-c]pyridin]-6′(7′H)-yl)-N-(pyrimidin-2-yl)acetamide] stands 0.1 to 1 µM; under `CC1(c2cc3c(s2)C(=O)N(CC(=O)Nc2ncccn2)CC32CC2)CC1` [Compound 27, 2-(2′-(1-Methylcyclopropyl)-7′-oxo-5′H-spiro[cyclopropane-1,4′-thieno[2,3-c]pyridin]-6′(7′H)-yl)-N-(pyrimidin-2-yl)acetamide], 0.1 to 1 µM; under `Cc1nc2c(cc3n2C(C)CN(CC(=O)Nc2ncccn2)C3=O)s1` (stereo not shown) [Compound 41], 10 to 50 µM.

Values taken from patent US20260008780A1, “SUBSTITUTED 3,4-DIHYDROISOQUINOLIN-1(2H)-ONE DERIVATIVES AND RELATED USES” (NodThera Limited, priority 2022, published 2026).
